Results on 4 molecules are retold here after patent US6485922B1, “Methods for detecting compounds which modulate the activity of an LPA receptor” (Atairgin Technologies, Inc., priority 1997, dated 2002).

One series concerns the target T1, human LPA receptor EDG-2 (Homo sapiens, UniProt Q92633).
T1 construct: The EDG-2 coding region was amplified by RT-PCR using Pfu DNA polymerase; expressed in transfected cells; host or cells: Saccharomyces cerevisiae JEY5 (sst2-, far1, FUS1::lacZ), plasmid pYEUra3-Edg2 (pJE15), galactose-inducible
Put plainly: FUS1::lacZ (β-galactosidase) reporter assay in yeast expressing EDG-2. It is filed as cell-based. The settings on record: for activation of EDG-2 (FUS1::lacZ activity): concentrations up to 200 μM, S.C.+2% galactose; for activity towards EDG-2 of liposome preparations on their own: liposomes without LPA. The protocol: SY2069 (Mata, far1-bad3, HIS3::pFUS1::HIS3, mfa2-Δ1::pFUS1::lacZ, ura3, leu2, ade1, arg4, trp1) was used to derive an sst2^− strain for subsequent studies. SST2 was disrupted using pBC14 (Dohlman, H. G., et al. (1996) Mol. Cell. Biol. 16(9), 5194-5209). pBC14 was digested with NcoI and transformed into SY2069 by lithium acetate using the URA3 gene for selection. Ura^+ colonies were grown in non-selective media (YEPD) and plated onto media containing 5-Flouro-orotic Acid (5-FOA, Sigma). The resultant 5-FOA resistant isolates were tested for the supersensitive phenotype by assaying lacZ activity in response to α-factor (data not shown). One sst2^− strain was named JEY5 and used in all subsequent studies. Yeast were grown in SC+2% Galactose or 2% Glucose media lacking Uracil.
Construction of EDG-2 Expression Plasmid and Expression in Yeast: The EDG-2 coding region was amplified by RT-PCR using Pfu DNA polymerase under conditions described by the supplier (Stratagene). The template for RT-PCR was cDNA (5 ng) that was reverse transcribed from human fetal brain total RNA (Clontech) using SuperScript II Reverse Transcriptase as described by the supplier (Gibco BRL). 1 μM each of the following primers, FP; 5′-[…]-3′ (SEQ ID NO. 2) and RP; 5′-[…]-3′ (SEQ ID NO. 3), were used for RT-PCR. Oligonucleotide Synthesis and DNA Sequencing: PCR primers and DNA sequencing primers were synthesized by the phosphoramidite method with an Applied Biosystems model 394 synthesizer, purified by polyacrylamide gel electrophoresis and desalted on Sep-Pak C18 cartridges (Waters Associates, Milford, Mass.). The edg-2 cDNA was sequenced in pYEUra3 by the dideoxy chain termination method using the T7 Sequenase7-deaza-dGTP sequencing kit as described by the supplier (Amersham Life Science). The primers were designed based on the human edg-2 cDNA sequence submitted to Genbank by Zondag and Moolenaar (accession no. Y09479) and included restriction site extensions for subcloning into the pYEUra3 vector (Stratagene). This placed the cDNA under the control of a galactose-inducible promoter (UASgal). The resulting plasmid was used to transform JEY5 by the lithium acetate method.
(§1) Expression of the EDG-2: To test the effects of the SST2 gene product on the edg-2 response to LPA, JEY5 (sst2Δ) expressing the EDG-2 receptor was compared to the parental SY2069 strain (SST2^+). […] As a control, JEY5+EDG-2 was assayed in 2% glucose such that the GAL1 promoter would be repressed and thus not expressing the edg-2 gene (glucose repression is described in detail by Johnston, M., and Carlson, M. (1992) in The molecular and cellular biology of the yeast Saccharomyces: gene expression (Broach, J. R., Pringle, J. R., and Jones, E. W., eds), pp. 193-281, Cold Spring Harbor Laborartory Press, Plainview, N.Y.). lacZ assays in response to phospholipids: JEY5+pJE15 was grown on SC media containing either 2% galactose or 2% glucose lacking uracil to an approximate optical density of 0.1-0.5 prior to the addition of lipid or α-factor. LPA and other glycerophospholipids (Avanti Polar Lipids) were dissolved in chloroform and dried down under vacuum immediately prior to experiments and resuspended in BBS/EDTA (50 mM NH4HCO3, 104 mM NaCl, 250 mM EDTA2Na) at 1 mg/ml with sonication until the solution was clear. Sphingosine-1-phosphate (Matreya) was resuspended in ethanol/water (9:1) pH 3.0 immediately prior to use. Fatty Acid Free Bovine Serum Albumin was obtained from Sigma (St. Louis, Mo.) and used at 0.1 mg/ml in BBS/EDTA. Cells were allowed to grow for the indicated time (7 hours for dose response experiments) prior to assaying. 100 μl of yeast culture were then added to 900 μl assay buffer (per liter: 60 mM Na2HPO4, 40 mM NaH2PO4, 10 mM KCl, 0.1 mM MgSO4, pH 7.0 plus 2.7 ml β-mercaptoethanol per liter) plus 50 μl 0.1%SDS+three drops Chloroform. Cells were vortexed for 10 seconds and incubated for 5 minutes at 28° C.

In the next series the test system is yeast cells. Briefly: Toxicity of lipids to the yeast cells in the lacZ assay. The series is classed as cell-based, Saccharomyces cerevisiae. The settings on record: yeast culture. The protocol: as §1, with “[…] Color development” for “Fatty Acid Free Bovine Serum Albumin”, “measured at A420” for “obtained from Sigma (St. Louis, Mo.)”, “normalized to A600. Units” for “used at 0.1 mg/ml in BBS/EDTA. Cells”, “expressed as Miller Units. […]” for “allowed to grow for the indicated time (7 hours for dose response experiments) prior to assaying. 100 μl of yeast culture were then added to 900 μl assay buffer (per liter: 60 mM Na2HPO4, 40 mM NaH2PO4, 10 mM KCl, 0.1 mM MgSO4, pH 7.0 plus 2.7 ml β-mercaptoethanol per liter) plus 50 μl 0.1%SDS+three drops Chloroform. Cells were vortexed for 10 seconds and incubated for 5 minutes at 28° C.”

T1 sequence (Q92633 whole entry): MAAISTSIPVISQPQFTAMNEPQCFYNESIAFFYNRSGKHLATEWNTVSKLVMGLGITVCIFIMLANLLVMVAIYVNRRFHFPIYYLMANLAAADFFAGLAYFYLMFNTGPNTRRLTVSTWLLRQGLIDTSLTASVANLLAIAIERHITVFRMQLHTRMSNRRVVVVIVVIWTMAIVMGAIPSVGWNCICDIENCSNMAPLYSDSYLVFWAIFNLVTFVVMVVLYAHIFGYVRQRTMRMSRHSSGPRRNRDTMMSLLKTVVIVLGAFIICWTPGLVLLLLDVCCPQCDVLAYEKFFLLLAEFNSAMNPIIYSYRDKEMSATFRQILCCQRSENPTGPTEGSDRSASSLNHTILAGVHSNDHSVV

“1-acyl-2-hydroxy-sn-glycero-3-phosphate [LPA]”: the “response of FUS1::lacZ to LPA, sst2- derivative” value on human LPA receptor EDG-2 (JEY5 (sst2Δ) expressing EDG-2, 200 μM LPA, galactose, seven hours) is reported as “activated”. At human LPA receptor EDG-2 (seven hours), the “activation of EDG-2 (FUS1::lacZ activity)” value was “specifically responds”. Besides, at human LPA receptor EDG-2 (parental SY2069 strain (SST2+) expressing EDG-2), the “response of FUS1::lacZ to LPA, SST2+ strain” value is “unresponsive”. Besides, the “maximal stimulation of lacZ activity as compared to vector control” value at human LPA receptor EDG-2 (time course, at 7 hours) is recorded as “four-fold”. For the same molecule, in the series on yeast cells, the “concentration at which toxicity was seen / above which testing was not possible due to toxicity” value was “above 600 μM”.

As to “1-palmitoyl-2-oleoyl-phosphatidylglycerol”, on human LPA receptor EDG-2, the “activity towards EDG-2 of liposome preparations on their own” value is listed as “no activity”.

Consider `CCCCCCCCCCCCC/C=C/[C@@H](O)[C@@H](N)COP(=O)(O)O` [Sphingosine-1-phosphate], for which the “activation of EDG-2 (FUS1::lacZ activity)” value on human LPA receptor EDG-2 (seven hours) is given as “no other lyso-glycerolphospholipid or Sphingosine-1-phosphate activated EDG-2 as well as did LPA”; on human LPA receptor EDG-2 (seven hours, listed as sphingosine-1-phosphate), “does not respond”.

Consider dioleoyl-phosphatidylcholine, for which the “activity towards EDG-2 of liposome preparations on their own” value on human LPA receptor EDG-2 was “no activity”.
